Experimental data taken from patent US20090068290A1, “BIFEPRUNOX DOSES FOR TREATING SCHIZOPHRENIA” (priority 2006, published 2009).

How the values were obtained:
Assay type in all cases: in vivo, human
[1] = system: adult subjects with schizophrenia; assay: PANSS responder rates, Clinical Study One; settings: for PANSS responder rate, 20% definition: Endpoint LOCF; for PANSS Responder at Endpoint (LOCF), 20% Definition / PANSS Responder at Endpoint (LOCF), 25% Definition / PANSS Responder at Endpoint (LOCF), 30% Definition / PANSS Responder at Endpoint (LOCF), 35% Definition: ITT
Protocol: There were five treatment groups in this study. […] Study medication was administered once daily. After Baseline measurements were performed, the titration phase was begun. Bifeprunox treated subjects were titrated up to 5 mg, 10 mg or 20 mg according to a standardized titration schedule (Day 1: 0.125 mg, Day 2: 0.25 mg, Day 3: 0.5 mg, Day 4: 1.0 mg, Day 5: 2.0 mg, Day 6: 5.0 mg, Day 7: 10.0 mg, Day 8: 20 mg). When the assigned dose was reached, subjects were maintained at that dose for the remainder of the six-week treatment period.

[2] = system: adult subjects with schizophrenia; assay: PANSS negative symptom subscale score, Clinical Study Two; settings: LOCF, ITT; for PANSS Negative Symptom Subscale Score, Trt Effect (bifeprunox—placebo): ANCOVA
Protocol: (§1) Rating scale assessments were performed weekly, except for week 5, to measure the change from baseline to endpoint of the PANSS total score. Other assessments included: PANSS positive symptom subscale score, PANSS negative symptom subscale score, PANSS general pschopathology subscale score, BPRS total score, BPRS psychosis score, the CGI-S score, the CGI-I score, responder rates based on the PANSS total score, and the Calgary Depression Scale for Schizophrenia (CDSS). […]
(§2) Subjects who completed this study had the option to continue in the long-term. […] Risperidone-treated subjects were titrated from 2 mg to 6 mg daily over a three-day period and were subsequently maintained at 6 mg/day for the remainder of the treatment period. […] Blood samples were also obtained at Screening/Baseline, Week 3, and Week 6 for clinical laboratory assessments.

[3] = system: adult subjects with schizophrenia; assay: PANSS general psychopathology subscale score, Clinical Study Two; settings: for Change from Baseline in General Psychopathology Subscale Score, Mean (SD) / Change from Baseline in General Psychopathology Subscale Score, Median / Trt Effect (bifeprunox - placebo), General Psychopathology Subscale Score / mean change (SD) from Baseline to Endpoint in PANSS general psychopathology subscale score: LOCF; for Change from Baseline in General Psychopathology Subscale Score, Mean (SD) / Change from Baseline in General Psychopathology Subscale Score, Median / Trt Effect (bifeprunox - placebo), General Psychopathology Subscale Score: ITT population; for Trt Effect (bifeprunox - placebo), General Psychopathology Subscale Score: ANCOVA; for PANSS general psychopathology subscale score, treatment effect (bifeprunox—placebo): Endpoint LOCF; for mean change (SD) from Baseline to Endpoint in PANSS general psychopathology subscale score: ITT
Protocol: as §1, §2

[4] = system: adult subjects with schizophrenia; assay: BPRS psychosis cluster score, Clinical Study Two; settings: for Change from Baseline in BPRS Psychosis Cluster Score, Mean (SD) / Change from Baseline in BPRS Psychosis Cluster Score, Median / Change from Baseline in BPRS Psychosis Cluster Score, Trt Effect (bifeprunox—placebo) / mean change (SD) from Baseline to Endpoint in BPRS psychosis cluster score: LOCF; for Change from Baseline in BPRS Psychosis Cluster Score, Mean (SD) / Change from Baseline in BPRS Psychosis Cluster Score, Median / Change from Baseline in BPRS Psychosis Cluster Score, Trt Effect (bifeprunox—placebo): ITT population; for BPRS psychosis cluster score, treatment effect (bifeprunox—placebo): Endpoint LOCF; for mean change (SD) from Baseline to Endpoint in BPRS psychosis cluster score: ITT
Protocol: as §1, §2

[5] = Body weight, Clinical Study Two; settings: Bifeprunox 30 mg
[6] = Bifeprunox 30 mg, Week 6/Endpoint
[7] = Bifeprunox 40 mg, Week 6/Endpoint

O=c1[nH]c2cccc(N3CCN(Cc4cccc(-c5ccccc5)c4)CC3)c2o1 [Bifeprunox, 7-[4-([1,1′-biphenyl]-3-ylmethyl)-1-piperazinyl]-2(3H)-benzoxazolone]
PANSS responder rate, 20% definition ([1]; Bifeprunox 5 mg): 28%
PANSS Responder at Endpoint (LOCF), 20% Definition ([1]; Bifeprunox 5 mg): 31 (28) n (%)
PANSS Responder at Endpoint (LOCF), 25% Definition ([1]; Bifeprunox 5 mg): 25 (23) n (%)
PANSS Responder at Endpoint (LOCF), 30% Definition ([1]; Bifeprunox 5 mg): 16 (15) n (%)
PANSS Responder at Endpoint (LOCF), 35% Definition ([1]; Bifeprunox 5 mg): 11 (10) n (%)
PANSS responder rate, 20% definition ([1]; Bifeprunox 10 mg): 24%
PANSS Responder at Endpoint (LOCF), 20% Definition ([1]; Bifeprunox 10 mg): 28 (24) n (%)
PANSS Responder at Endpoint (LOCF), 25% Definition ([1]; Bifeprunox 10 mg): 22 (19) n (%)
PANSS Responder at Endpoint (LOCF), 30% Definition ([1]; Bifeprunox 10 mg): 12 (10) n (%)
PANSS Responder at Endpoint (LOCF), 35% Definition ([1]; Bifeprunox 10 mg): 7 (6) n (%)
PANSS Responder at Endpoint (LOCF), 20% Definition ([1]; Bifeprunox 20 mg): 38 (34) n (%)
PANSS Responder at Endpoint (LOCF), 25% Definition ([1]; Bifeprunox 20 mg): 27 (24) n (%)
PANSS Responder at Endpoint (LOCF), 30% Definition ([1]; Bifeprunox 20 mg): 18 (16) n (%)
PANSS Responder at Endpoint (LOCF), 35% Definition ([1]; Bifeprunox 20 mg): 14 (13) n (%)
PANSS responder rate, 20% definition ([1]; bifeprunox 20 mg): 34%
Change from Baseline in PANSS Negative Symptom Subscale Score, Mean (SD) ([2]; Bifeprunox 30 mg, Week 1): −1.6 (3.7)
Change from Baseline in PANSS Negative Symptom Subscale Score, Median ([2]; Bifeprunox 30 mg, Week 1): −1
Change from Baseline in PANSS Negative Symptom Subscale Score, Mean (SD) ([2]; Bifeprunox 30 mg, Week 2): 2.6 (4.4)
Change from Baseline in PANSS Negative Symptom Subscale Score, Median ([2]; Bifeprunox 30 mg, Week 2): −2
Change from Baseline in PANSS Negative Symptom Subscale Score, Mean (SD) ([2]; Bifeprunox 30 mg, Week 3): −3.0 (5.0)
Change from Baseline in PANSS Negative Symptom Subscale Score, Median ([2]; Bifeprunox 30 mg, Week 3): −3
Change from Baseline in PANSS Negative Symptom Subscale Score, Mean (SD) ([2]; Bifeprunox 30 mg, Week 4): −3.1 (5.3)
Change from Baseline in PANSS Negative Symptom Subscale Score, Median ([2]; Bifeprunox 30 mg, Week 4): −2
Change from Baseline in PANSS Negative Symptom Subscale Score, Mean (SD) [2, 6]: −3.1 (5.6)
Change from Baseline in PANSS Negative Symptom Subscale Score, Median [2, 6]: −2
PANSS Negative Symptom Subscale Score, Trt Effect (bifeprunox—placebo) [2, 6]: −1.4
Change from Baseline in PANSS Negative Symptom Subscale Score, Mean (SD) ([2]; Bifeprunox 40 mg, Week 1): −1.2 (3.3)
Change from Baseline in PANSS Negative Symptom Subscale Score, Median ([2]; Bifeprunox 40 mg, Week 1): −1
Change from Baseline in PANSS Negative Symptom Subscale Score, Mean (SD) ([2]; Bifeprunox 40 mg, Week 2): −1.9 (4.0)
Change from Baseline in PANSS Negative Symptom Subscale Score, Median ([2]; Bifeprunox 40 mg, Week 2): −2
Change from Baseline in PANSS Negative Symptom Subscale Score, Mean (SD) ([2]; Bifeprunox 40 mg, Week 3): −2.2 (4.7)
Change from Baseline in PANSS Negative Symptom Subscale Score, Median ([2]; Bifeprunox 40 mg, Week 3): −1
Change from Baseline in PANSS Negative Symptom Subscale Score, Mean (SD) ([2]; Bifeprunox 40 mg, Week 4): −2.1 (4.9)
Change from Baseline in PANSS Negative Symptom Subscale Score, Median ([2]; Bifeprunox 40 mg, Week 4): −1
Change from Baseline in PANSS Negative Symptom Subscale Score, Mean (SD) [2, 7]: −2.2 (5.4)
Change from Baseline in PANSS Negative Symptom Subscale Score, Median [2, 7]: −1
PANSS Negative Symptom Subscale Score, Trt Effect (bifeprunox—placebo) [2, 7]: −0.9
Change from Baseline in General Psychopathology Subscale Score, Mean (SD) ([3]; Bifeprunox 30 mg, Week 1): −2.7 (6.4)
Change from Baseline in General Psychopathology Subscale Score, Median ([3]; Bifeprunox 30 mg, Week 1): −2
Change from Baseline in General Psychopathology Subscale Score, Mean (SD) ([3]; Bifeprunox 30 mg, Week 2): −4.9 (8.1)
Change from Baseline in General Psychopathology Subscale Score, Median ([3]; Bifeprunox 30 mg, Week 2): −4
Change from Baseline in General Psychopathology Subscale Score, Mean (SD) ([3]; Bifeprunox 30 mg, Week 3): −5.8 (9.2)
Change from Baseline in General Psychopathology Subscale Score, Median ([3]; Bifeprunox 30 mg, Week 3): −5
Change from Baseline in General Psychopathology Subscale Score, Mean (SD) ([3]; Bifeprunox 30 mg, Week 4): −6.1 (9.7)
Change from Baseline in General Psychopathology Subscale Score, Median ([3]; Bifeprunox 30 mg, Week 4): −5
Change from Baseline in General Psychopathology Subscale Score, Mean (SD) [3, 6]: −6.0 (10.2)
Change from Baseline in General Psychopathology Subscale Score, Median [3, 6]: −5
Trt Effect (bifeprunox - placebo), General Psychopathology Subscale Score [3, 6]: −2.5
Change from Baseline in General Psychopathology Subscale Score, Mean (SD) ([3]; Bifeprunox 40 mg, Week 1): −2.7 (5.9)
Change from Baseline in General Psychopathology Subscale Score, Median ([3]; Bifeprunox 40 mg, Week 1): −2
Change from Baseline in General Psychopathology Subscale Score, Mean (SD) ([3]; Bifeprunox 40 mg, Week 2): −3.4 (7.9)
Change from Baseline in General Psychopathology Subscale Score, Median ([3]; Bifeprunox 40 mg, Week 2): −3
Change from Baseline in General Psychopathology Subscale Score, Mean (SD) ([3]; Bifeprunox 40 mg, Week 3): −3.8 (8.8)
Change from Baseline in General Psychopathology Subscale Score, Median ([3]; Bifeprunox 40 mg, Week 3): −3
Change from Baseline in General Psychopathology Subscale Score, Mean (SD) ([3]; Bifeprunox 40 mg, Week 4): −3.4 (9.3)
Change from Baseline in General Psychopathology Subscale Score, Median ([3]; Bifeprunox 40 mg, Week 4): −2
Change from Baseline in General Psychopathology Subscale Score, Mean (SD) [3, 7]: −3.8 (10.1)
Change from Baseline in General Psychopathology Subscale Score, Median [3, 7]: −3
Trt Effect (bifeprunox - placebo), General Psychopathology Subscale Score [3, 7]: −0.7
PANSS general psychopathology subscale score, treatment effect (bifeprunox—placebo) ([3]; bifeprunox 30 mg): −2.5
mean change (SD) from Baseline to Endpoint in PANSS general psychopathology subscale score ([3]; bifeprunox 30 mg): −6.0 (10.2)
PANSS general psychopathology subscale score, treatment effect (bifeprunox—placebo) ([3]; bifeprunox 40 mg): −0.7
mean change (SD) from Baseline to Endpoint in PANSS general psychopathology subscale score ([3]; bifeprunox 40 mg): −3.8 (10.1)
Change from Baseline in BPRS Psychosis Cluster Score, Mean (SD) ([4]; Bifeprunox 30 mg, Week 1): −1.7 (2.3)
Change from Baseline in BPRS Psychosis Cluster Score, Median ([4]; Bifeprunox 30 mg, Week 1): −1
Change from Baseline in BPRS Psychosis Cluster Score, Median ([4]; Bifeprunox 30 mg, Week 2): −2
Change from Baseline in BPRS Psychosis Cluster Score, Mean (SD) ([4]; Bifeprunox 30 mg, Week 3): −3.1 (3.8)
Change from Baseline in BPRS Psychosis Cluster Score, Median ([4]; Bifeprunox 30 mg, Week 3): −2
Change from Baseline in BPRS Psychosis Cluster Score, Mean (SD) ([4]; Bifeprunox 30 mg, Week 4): −3.1 (3.8)
Change from Baseline in BPRS Psychosis Cluster Score, Median ([4]; Bifeprunox 30 mg, Week 4): −3
Change from Baseline in BPRS Psychosis Cluster Score, Mean (SD) [4, 6]: −3.2 (4.2)
Change from Baseline in BPRS Psychosis Cluster Score, Median [4, 6]: −3
Change from Baseline in BPRS Psychosis Cluster Score, Trt Effect (bifeprunox—placebo) [4, 6]: −1.4
Change from Baseline in BPRS Psychosis Cluster Score, Mean (SD) ([4]; Bifeprunox 40 mg, Week 1): −1.7 (2.6)
Change from Baseline in BPRS Psychosis Cluster Score, Median ([4]; Bifeprunox 40 mg, Week 1): −1
Change from Baseline in BPRS Psychosis Cluster Score, Mean (SD) ([4]; Bifeprunox 40 mg, Week 2): −2.2 (3.5)
Change from Baseline in BPRS Psychosis Cluster Score, Median ([4]; Bifeprunox 40 mg, Week 2): −2
Change from Baseline in BPRS Psychosis Cluster Score, Mean (SD) ([4]; Bifeprunox 40 mg, Week 3): −2.5 (4.0)
Change from Baseline in BPRS Psychosis Cluster Score, Median ([4]; Bifeprunox 40 mg, Week 3): −2
Change from Baseline in BPRS Psychosis Cluster Score, Mean (SD) ([4]; Bifeprunox 40 mg, Week 4): −2.5 (4.2)
Change from Baseline in BPRS Psychosis Cluster Score, Median ([4]; Bifeprunox 40 mg, Week 4): −1
Change from Baseline in BPRS Psychosis Cluster Score, Mean (SD) [4, 7]: −2.6 (4.4)
Change from Baseline in BPRS Psychosis Cluster Score, Median [4, 7]: −2
Change from Baseline in BPRS Psychosis Cluster Score, Trt Effect (bifeprunox—placebo) [4, 7]: −1.0
BPRS psychosis cluster score, treatment effect (bifeprunox—placebo) ([4]; bifeprunox 30 mg): −1.4
mean change (SD) from Baseline to Endpoint in BPRS psychosis cluster score ([4]; bifeprunox 30 mg): −3.2 (4.2)
BPRS psychosis cluster score, treatment effect (bifeprunox—placebo) ([4]; bifeprunox 40 mg): −1.0
mean change (SD) from Baseline to Endpoint in BPRS psychosis cluster score ([4]; bifeprunox 40 mg): −2.6 (4.4)
Weight, Baseline Mean of subjects with Endpoint change [5]: 168.1 lbs
